Measured values: PMC8825798 (Communications Biology, 2022)
Several values for one entry are separate records, joined by “and”; a condition that tells them apart may be missing. Equal entries are not always repeated. Peptide text beside a SMILES is read from it.

Assays:
[1] = target: αCOPI-WD40 domain (residues 1-327) (Schizosaccharomyces pombe, UniProt Q96WV5, F197K/I192K/L181K/L185K/L196K); experiment: biochemical; format: binding
[2] = target: T1, sarbecovirus spike hepta-peptide, wild type (1267Gly-Val-Lys-Leu-His-Tyr-Thr1273) (SARS-CoV-2); experiment: BLI; details: both partners purified
T1 peptide: GVKLHYT

CC(C)C[C@H](NC(=O)[C@H](CCCCN)NC(=O)[C@@H](NC(=O)CN)C(C)C)C(=O)N[C@@H](Cc1c[nH]cn1)C(=O)N[C@@H](C)C(=O)N[C@H](C(=O)O)[C@@H](C)O [GVKLHAT] (H-GVKLHAT-OH)
Kd ([1]; Equilibrium KD): 3770 ± 340 nM
Kd ([1]; Kinetic KD): 2320 ± 70 nM
koff ([1]; pH 6.5): 0.28 ± 0.003 s⁻¹
kon ([1]; pH 6.5): 120.87 ± 3.39 10^3/Ms

CC(C)C[C@H](NC(=O)[C@H](CCCCN)NC(=O)[C@@H](NC(=O)CN)C(C)C)C(=O)N[C@@H](Cc1c[nH]cn1)C(=O)N[C@@H](Cc1ccc(O)cc1)C(=O)N[C@@H](C)C(=O)O [GVKLHYA] (H-GVKLHYA-OH)
Kd ([1]; Equilibrium KD): 1130 ± 50 nM
Kd ([1]; Kinetic KD): 1140 ± 20 nM
koff ([1]; pH 6.5): 0.076 ± 0.001 s⁻¹
kon ([1]; pH 6.5): 66.67 ± 0.80 10^3/Ms

CC(C)C[C@H](NC(=O)[C@H](CCCCN)NC(=O)[C@@H](NC(=O)CN)C(C)C)C(=O)N[C@@H](Cc1c[nH]cn1)C(=O)N[C@@H](Cc1ccc(O)cc1)C(=O)N[C@@H](CCC(=O)O)C(=O)O [GVKLHYE] (H-GVKLHYE-OH)
Kd ([1]; Equilibrium KD): 310 ± 10 nM
Kd ([1]; Kinetic KD): 380 ± 10 nM
koff ([1]; pH 6.5): 0.024 ± 0.0003 s⁻¹
kon ([1]; pH 6.5): 58.96 ± 0.54 10^3/Ms

CC(C)C[C@H](NC(=O)[C@H](CCCCN)NC(=O)[C@@H](NC(=O)CN)C(C)C)C(=O)N[C@@H](Cc1c[nH]cn1)C(=O)N[C@@H](Cc1ccc(O)cc1)C(=O)N[C@@H](CCC(N)=O)C(=O)O [GVKLHYQ] (H-GVKLHYQ-OH)
Kd ([1]; Equilibrium KD): 780 ± 40 nM
Kd ([1]; Kinetic KD): 1150 ± 10 nM
koff ([1]; pH 6.5): 0.066 ± 0.001 s⁻¹
kon ([1]; pH 6.5): 60.05 ± 0.75 10^3/Ms

CC(C)C[C@H](NC(=O)[C@H](CCCCN)NC(=O)[C@@H](NC(=O)CN)C(C)C)C(=O)N[C@@H](Cc1c[nH]cn1)C(=O)N[C@@H](Cc1ccc(O)cc1)C(=O)N[C@@H](CCCNC(=N)N)C(=O)O [GVKLHYR] (H-GVKLHYR-OH)
Kd ([1]; Equilibrium KD): 1730 ± 240 nM
Kd ([1]; Kinetic KD): 1290 ± 40 nM
koff ([1]; pH 6.5): 0.177 ± 0.001 s⁻¹

CC(C)C[C@H](NC(=O)[C@H](CCCCN)NC(=O)[C@@H](NC(=O)CN)C(C)C)C(=O)N[C@@H](Cc1c[nH]cn1)C(=O)N[C@@H](Cc1ccc(O)cc1)C(=O)N[C@H](C(=O)O)[C@@H](C)O [GVKLHYT] (H-GVKLHYT-OH)
Kd ([1]; Equilibrium KD): 4170 nM and 1400 nM
Kd ([1]; Kinetic KD): 2750 nM and 950 nM
koff ([1]; pH 6.5): 0.145 ± 0.001 s⁻¹
kon ([1]; pH 6.5): 152.13 ± 3.45 10^3/Ms
koff ([1]; pH 7.5): 0.25 ± 0.003 s⁻¹
kon ([1]; pH 7.5): 89.96 ± 2.72 10^3/Ms

CC(C)C[C@H](NC(=O)[C@H](CCCCN)NC(=O)[C@@H](NC(=O)CN)C(C)C)C(=O)N[C@@H](Cc1c[nH]cn1)C(=O)N[C@@H](Cc1ccc(O)cc1)C(=O)N[C@H](C(=O)O)C(C)C [GVKLHYV] (H-GVKLHYV-OH)
Kd ([1]; Equilibrium KD): 3200 ± 40 nM
Kd ([1]; Kinetic KD): 2060 ± 50 nM
koff ([1]; pH 6.5): 0.212 ± 0.002 s⁻¹
kon ([1]; pH 6.5): 102.67 ± 2.61 10^3/Ms

CC(C)C[C@H](NC(=O)[C@H](CCCCN)NC(=O)[C@@H](NC(=O)CN)C(C)C)C(=O)N[C@@H](CCCCN)C(=O)N[C@@H](Cc1ccc(O)cc1)C(=O)N[C@H](C(=O)O)[C@@H](C)O [GVKLKYT] (H-GVKLKYT-OH)
Kd ([1]; Kinetic KD): 2710 nM
koff ([1]; pH 7.5): 0.184 s⁻¹
kon ([1]; pH 7.5): 67.3 ± 1.45 10^3/Ms

GVALAYT
Binding to αCOPI-WD40 (in words) ([1]; pH 6.5): does not demonstrate any substantial binding

GVALHYT
Binding to αCOPI-WD40 (in words) ([1]; pH 6.5): abolished binding

GVKLAYT
Binding to αCOPI-WD40 (in words) ([1]; pH 6.5): abolished binding

KEVYLHG
Binding to αCOPI-WD40 (in words) ([1]; pH 6.5): weak binding

VLKTYHG
Binding to αCOPI-WD40 (in words) ([1]; pH 7.5): no detectable interaction

B1: αCOPI-WD40 domain (residues 1-327) from Schizosaccharomyces pombe (domain or fragment)
chain: MEMLTKFESRSSRAKGVAFHPTQPWILTSLHNGRIQLWDYRMGTLLDRFDGHDGPVRGIAFHPTQPLFVSGGDDYKVNVWNYKSRKLLFSLCGHMDYVRVCTFHHEYPWILSCSDDQTIRIWNWQSRNCIAILTGHSHYVMCAAFHPSEDLIVSASLDQTVRVWDISGLRMKNAAPVSMSKEDQKAQAHNSKSNDKKGSTDAIVKFVLEGHDRGVNWCAFHPTLPLILSAGDDRLVKLWRMTASKAWEVDTCRGHFNNVSCCLFHPHQELILSASEDKTIRVWDLNRRTAVQTFRRDNDRFWFITVHPKLNLFAAAHDSGVMVFKLE
koff [2]: 0.145 s⁻¹ and 0.25 s⁻¹
kon [2]: 152000 M⁻¹ s⁻¹ and 90000 M⁻¹ s⁻¹
